According to article PMC9916964 (International Journal of Molecular Sciences, 2023):
Where two headings read alike, the source gives them in different places.

Experiments:
[1] = biological target: canine serum butyrylcholinesterase (csBChE) (Canis lupus familiaris, UniProt A0A8I3PBA0); assay: Cholinesterase inhibition assay (Ellman's method), csBChE; assay type: biochemical; conditions: for IC50: Ellman's method, 25 °C, pH 7.4
Procedure: (§1) Cholinesterase activity was measured by Ellman’s method adapted for microtiter plates, as previously described by Ristovski et al.. A complex and its ligands were first screened for the IC50 determination and then the inhibitory constants (Ki) were determined. A stock solution of C1 (1 mg/mL) was prepared in 5% v/v DMSO in deionized water, while a stock solution of chlorido analogue C1′ (1 mg/mL) was prepared in 100% methanol (MeOH). […] These solutions were added to the wells, and gradually diluted in 100 mM of potassium phosphate buffer (pH 7.4) to the final volume of 50 µL. Acetylthiocholine chloride and 5,5′-dithiobis-2-nitrobenzoic acid were then dissolved in the same buffer to the respective final concentrations of 1 and 0.5 mM and added (100 μL) to the wells of the microtiter plates. C1 was screened against a suite of ChEs of human and animal origin (eeAChE, hrAChE, hsBChE) (all three from Sigma-Aldrich, St. Louis, MO, USA), hrBChE (gift from the research group of Professor Stanislav Gobec, Faculty of Pharmacy, University of Ljubljana), and csBChE. All enzymes were dissolved in the 100 mM potassium phosphate buffer (pH 7.4) to 0.0075 U/mL. Fifty μL of each ChE was added to start the reactions, which were followed spectrophotometrically at 405 nm and 25 °C for 5 min using a kinetic microplate reader (Dynex Technologies Inc., Chantilly, VA, USA). The blank reactions without the inhibitors were run with the appropriate dilutions of the solvents, in which the tested compound and positive control were initially diluted (5% aqueous DMSO or 100% MeOH), and the readings were corrected according to the appropriate blanks. […] Each measurement was repeated at least three times. Data were analyzed using OriginPro software (OriginPro 2020, OriginLab Corporation, Northampton, MA, USA).

[2] = biological target: T1, human recombinant butyrylcholinesterase (hrBChE) (Homo sapiens, UniProt P06276); assay: Cholinesterase inhibition assay (Ellman's method), hrBChE; assay type: biochemical; conditions: for IC50: Ellman's method, 25 °C, pH 7.4
T1 construct: gift from the research group of Professor Stanislav Gobec, Faculty of Pharmacy, University of Ljubljana
Procedure: as §1

[3] = biological target: T2, electric eel acetylcholinesterase (eeAChE) (Electrophorus electricus, UniProt O42275); assay: Cholinesterase inhibition assay (Ellman's method), eeAChE; assay type: biochemical; conditions: for IC50: Ellman's method, 25 °C, pH 7.4
T2 construct: purchased Sigma-Aldrich, St. Louis, MO, USA
Procedure: as §1

[4] = biological target: T3, human recombinant acetylcholinesterase (hrAChE) (Homo sapiens, UniProt P22303); assay: Cholinesterase inhibition assay (Ellman's method), hrAChE; assay type: biochemical; conditions: for IC50: Ellman's method, 25 °C, pH 7.4
T3 construct: purchased Sigma-Aldrich, St. Louis, MO, USA
Procedure: as §1

[5] = biological target: T4, horse serum butyrylcholinesterase (hsBChE) (Equus caballus, UniProt P81908); assay: Cholinesterase inhibition assay (Ellman's method), hsBChE; assay type: biochemical; conditions: for IC50: Ellman's method, 25 °C, pH 7.4
T4 construct: BChE derived from horse serum; purchased Sigma-Aldrich, St. Louis, MO, USA; host or cells: horse serum
Procedure: as §1

[6] = biological target: T3, human recombinant acetylcholinesterase (hrAChE); conditions: previously reported; ref Ristovski et al. [9]; cited from earlier work
[7] = biological target: T2, electric eel acetylcholinesterase (eeAChE); conditions: previously reported; ref Ristovski et al. [9]; cited from earlier work
[8] = biological target: T4, horse serum butyrylcholinesterase (hsBChE); conditions: previously reported; ref Ristovski et al. [9]; cited from earlier work
[9] = tested on: isolated mouse nerve-hemidiaphragm preparation; assay: Muscle contraction recordings on isolated hemidiaphragm
Procedure: (§2) Mice were sacrificed by cervical dislocation and immediate exsanguination. After dissection of the diaphragm muscle with both phrenic nerves, the diaphragm muscle was cut into two hemidiaphragms. Each hemidiaphragm was maintained in oxygenated standard Krebs-Ringer solution (154 mM NaCl, 5 mM KCl, 2 mM CaCl2, 1 mM MgCl2, 5 mM HEPES, and 11 mM D-glucose; pH 7.4). Just prior to experiments, C1 was dissolved in a solution of 2.5% DMSO in deionized water at a stock concentration of 2 mg/mL. The final concentration of DMSO in the organ bath was always 0.104% v/v. All experiments were performed at room temperature (22–24 °C).
The hemidiaphragm with phrenic nerve was pinned on its lateral side into a silicon-coated organ bath containing oxygenated Krebs-Ringer (K-R) solution. Then, the tendon part was linked to the lever of an isometric mechano-electrical transducer (Grass Instruments, West Warwick, RI, USA) via a stainless-steel hook and silk thread. The equal stimulus protocol, equipment, and software were used as previously described by Ristovski et al.. The concentrations of C1 studied were 30, 60, 90, and 120 μM and their effect on muscle contraction was continuously measured during 60 min after application. The muscle twitch and tetanic contraction blockade produced by C1 was shown as the percentage of the initial maximal response.

[10] = tested on: AChE in mouse diaphragm muscle; conditions: 3 µM; cited from earlier work
[11] = biological target: T4, horse serum butyrylcholinesterase (hsBChE); assay: Cholinesterase inhibition assay (Ellman's method), hsBChE; assay type: biochemical; conditions: substrate acetylthiocholine 0.125, 0.25, 0.5 mM
[12] = tested on: mouse hemidiaphragm muscle fibers; conditions: 120 µM; for resting membrane potential (rVm), median: end-plate regions of surface fibers
Procedure: as §2
Electrophysiological recordings on hemidiaphragm muscle fibers were performed using conventional microelectrode techniques. For measurements of rVm, EPP, and MEPP, hemidiaphragm preparations were immersed in oxygenated K-R solution containing 1.6 μM of μ-conotoxin GIIIB (Bachem, Bubendorf, Switzerland) and incubated for 30 min. The same stimulus protocol, equipment, and software were used to perform membrane potential recordings, as previously described by Ristovski et al.. Only the highest concentration of C1 (120 μM) was studied. The recordings were performed before applying C1, 30 and 60 min after the compound application, and 15 min after the compound wash-out. MEPP and EPP amplitudes were normalized to a rVm of −70 mV using the formula: Vc = Vo (−70)/rVm, where Vc is the normalized amplitude of MEPPs and EPPs, and Vo is their recorded amplitude.

canine serum butyrylcholinesterase (csBChE), sequence (A0A8I3PBA0 29-602): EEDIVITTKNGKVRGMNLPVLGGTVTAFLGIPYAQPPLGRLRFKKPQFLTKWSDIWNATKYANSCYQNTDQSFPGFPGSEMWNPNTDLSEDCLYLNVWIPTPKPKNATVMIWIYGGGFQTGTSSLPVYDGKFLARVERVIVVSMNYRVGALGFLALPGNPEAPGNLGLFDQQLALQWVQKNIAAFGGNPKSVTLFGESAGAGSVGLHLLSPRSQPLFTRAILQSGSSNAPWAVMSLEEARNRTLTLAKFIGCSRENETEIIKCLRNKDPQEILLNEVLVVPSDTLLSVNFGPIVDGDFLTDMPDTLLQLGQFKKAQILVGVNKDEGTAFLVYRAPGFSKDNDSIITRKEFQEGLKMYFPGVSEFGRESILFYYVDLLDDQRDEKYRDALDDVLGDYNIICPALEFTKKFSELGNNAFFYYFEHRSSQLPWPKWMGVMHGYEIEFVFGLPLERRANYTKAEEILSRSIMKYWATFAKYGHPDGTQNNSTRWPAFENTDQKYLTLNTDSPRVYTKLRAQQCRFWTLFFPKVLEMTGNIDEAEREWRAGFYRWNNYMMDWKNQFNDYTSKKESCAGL
T4 sequence (P81908 whole entry): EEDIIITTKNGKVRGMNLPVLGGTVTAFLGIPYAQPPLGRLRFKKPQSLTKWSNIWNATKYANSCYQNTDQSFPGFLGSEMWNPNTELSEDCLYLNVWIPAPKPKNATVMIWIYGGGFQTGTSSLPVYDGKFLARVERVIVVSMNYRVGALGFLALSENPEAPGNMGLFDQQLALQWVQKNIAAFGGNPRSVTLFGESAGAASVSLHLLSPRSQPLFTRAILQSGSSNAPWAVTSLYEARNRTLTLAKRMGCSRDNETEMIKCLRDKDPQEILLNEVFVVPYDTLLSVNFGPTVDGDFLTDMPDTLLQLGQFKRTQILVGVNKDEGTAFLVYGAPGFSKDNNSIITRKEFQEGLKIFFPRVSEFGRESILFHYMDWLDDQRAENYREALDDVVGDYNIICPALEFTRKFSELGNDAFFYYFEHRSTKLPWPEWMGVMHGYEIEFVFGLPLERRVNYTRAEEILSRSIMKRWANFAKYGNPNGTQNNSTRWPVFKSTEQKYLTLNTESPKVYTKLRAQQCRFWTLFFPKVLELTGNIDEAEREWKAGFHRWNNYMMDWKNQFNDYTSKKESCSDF
T3 sequence (P22303 32-614): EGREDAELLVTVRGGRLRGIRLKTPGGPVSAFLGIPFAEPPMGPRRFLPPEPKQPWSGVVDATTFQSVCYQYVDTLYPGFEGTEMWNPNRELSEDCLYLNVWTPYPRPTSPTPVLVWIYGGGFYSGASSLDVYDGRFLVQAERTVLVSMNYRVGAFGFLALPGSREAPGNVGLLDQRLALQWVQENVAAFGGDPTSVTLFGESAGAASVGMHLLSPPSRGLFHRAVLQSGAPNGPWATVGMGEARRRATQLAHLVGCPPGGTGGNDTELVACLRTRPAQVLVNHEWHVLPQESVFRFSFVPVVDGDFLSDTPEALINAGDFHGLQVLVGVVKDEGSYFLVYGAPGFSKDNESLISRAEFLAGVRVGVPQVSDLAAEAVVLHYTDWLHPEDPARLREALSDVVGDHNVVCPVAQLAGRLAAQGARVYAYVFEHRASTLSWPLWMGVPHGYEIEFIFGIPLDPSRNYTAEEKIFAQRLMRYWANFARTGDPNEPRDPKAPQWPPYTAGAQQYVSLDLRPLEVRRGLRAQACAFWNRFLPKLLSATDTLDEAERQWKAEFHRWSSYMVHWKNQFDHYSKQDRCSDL
T1 sequence (P06276 29-602): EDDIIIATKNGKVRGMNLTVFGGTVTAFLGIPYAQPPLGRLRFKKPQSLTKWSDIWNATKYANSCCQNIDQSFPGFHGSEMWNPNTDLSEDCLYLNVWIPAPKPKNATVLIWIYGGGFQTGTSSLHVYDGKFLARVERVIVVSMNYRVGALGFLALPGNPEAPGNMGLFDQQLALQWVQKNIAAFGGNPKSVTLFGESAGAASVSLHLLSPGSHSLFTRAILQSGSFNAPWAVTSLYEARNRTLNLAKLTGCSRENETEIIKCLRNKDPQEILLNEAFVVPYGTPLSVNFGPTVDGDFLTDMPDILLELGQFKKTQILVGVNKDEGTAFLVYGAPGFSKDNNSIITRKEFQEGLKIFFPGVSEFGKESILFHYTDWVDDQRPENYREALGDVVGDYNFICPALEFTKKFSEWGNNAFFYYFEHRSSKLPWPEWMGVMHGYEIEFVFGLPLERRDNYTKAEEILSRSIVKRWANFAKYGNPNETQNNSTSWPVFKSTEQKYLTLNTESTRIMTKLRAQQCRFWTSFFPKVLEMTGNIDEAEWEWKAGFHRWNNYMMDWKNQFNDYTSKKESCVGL
T2 sequence (O42275 24-633): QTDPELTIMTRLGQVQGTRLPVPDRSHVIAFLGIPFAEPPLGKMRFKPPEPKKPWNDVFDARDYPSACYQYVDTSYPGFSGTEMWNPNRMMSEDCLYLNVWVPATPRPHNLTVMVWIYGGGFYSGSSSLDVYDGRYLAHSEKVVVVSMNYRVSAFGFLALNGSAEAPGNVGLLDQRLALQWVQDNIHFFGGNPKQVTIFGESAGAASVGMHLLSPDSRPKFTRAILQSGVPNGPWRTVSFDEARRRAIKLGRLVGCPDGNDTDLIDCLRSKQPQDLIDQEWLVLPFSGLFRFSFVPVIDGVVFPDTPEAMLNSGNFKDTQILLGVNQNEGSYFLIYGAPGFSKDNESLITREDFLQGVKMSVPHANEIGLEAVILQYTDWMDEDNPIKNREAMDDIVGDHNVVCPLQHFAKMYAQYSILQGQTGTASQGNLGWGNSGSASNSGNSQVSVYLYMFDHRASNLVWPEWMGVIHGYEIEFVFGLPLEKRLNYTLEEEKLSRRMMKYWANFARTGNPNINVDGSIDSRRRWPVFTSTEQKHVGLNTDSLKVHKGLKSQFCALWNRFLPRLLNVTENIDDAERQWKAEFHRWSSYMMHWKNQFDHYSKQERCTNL

| Molecule | inhibition of csBChE (in words) [1] | IC50 [1] [µM] | inhibition of hrBChE (in words) [2] | IC50 [2] [µM] | inhibition of eeAChE (in words) [3] | IC50 [3] [µM] | inhibition of hrAChE (in words) [4] | IC50 [4] [µM] | inhibition of hsBChE (in words) [5] | IC50 [5] [µM] | type of inhibition of hsBChE [5] | Ki [11] [µM] | other results |
| --- | --- | --- | --- | --- | --- | --- | --- | --- | --- | --- | --- | --- | --- |
| COc1cccn(O)c1=S [Compound L1, 1-hydroxy-3-methoxypyridine-2(1H)-thion] | did not inhibit | > 180 | did not inhibit | > 180 | did not inhibit | > 180 | did not inhibit | > 180 | did not inhibit | > 180 | – | – | – |
| Cc1ccc(C(C)C)cc1.Cc1ccc(C(C)C)cc1.[Cl][Ru][Cl].[Cl][Ru][Cl] [Compound P1, dichloro(p-cymene)ruthenium(II) dimer] | – | – | – | – | – | – | – | – | – | – | – | – | IC50 [6]: > 180 µM; IC50 [7]: > 180 µM; IC50 [8]: 32.7 µM; Ki [8]: 23.3 µM |
| CN(C)C(=O)Oc1cccc([N+](C)(C)C)c1 [Neostigmine, neostigmine methyl sulphate, reference compound] | – | 28.4 | – | 174 | – | 3.9 | – | – | – | 62.8 | – | – | effect on nerve-evoked single-muscle and tetanic contraction ([9]; 3 µM, positive control): a slight increase in the amplitude of the nerve-evoked single-muscle contraction and a tetanic fade; inhibition of AChE in mouse diaphragm muscle [10]: 96% |
| [(η^6-p-Cymene)Ru(II)(1-hydroxy-3-methoxypyridine-2(1H)-thionato)Cl] [C1′] | low micromolar range | 2.27 | low micromolar range | 1.29 | low micromolar range | 7.5 | low micromolar range | 5.04 | low micromolar range | 2.34 | reversible competitive type | 3.4 | type of inhibition of csBChE [1]: reversible competitive type; Ki ([1]; substrate 0.125, 0.25, 0.5 mM): 3 µM; type of inhibition of hrBChE [2]: reversible competitive type; Ki ([2]; substrate 0.125, 0.25, 0.5 mM): 1.25 µM; type of inhibition of eeAChE [3]: reversible competitive type; Ki ([3]; substrate 0.125, 0.25, 0.5 mM): 4.8 µM; type of inhibition of hrAChE [4]: reversible competitive type; Ki ([4]; substrate 0.125, 0.25, 0.5 mM): 5.35 µM |
| [(η^6-p-Cymene)Ru(II)(1-hydroxy-3-methoxypyridine-2(1H)-thionato)pta]PF6 [Compound C1] | – | > 180 | – | 144 | did not inhibit | > 180 | did not inhibit | > 180 | selectively inhibited | 2.88 | reversible competitive type | 1.33 | inhibition of csBChE (in words) ([1]; concentrations (0–180 µM) tested): did not inhibit; inhibition of hrBChE lower compared to hsBChE ([2]; ratio of IC50 hrBChE versus hsBChE): about 50 times; nerve-evoked single-twitch and tetanic contractions ([9]; 120 µM, 60 min exposure): not statistically significant increases; effect on maximal amplitude of nerve-evoked and directly elicited single-twitch and tetanic contractions ([9]; 30, 60, 90 and 120 µM, 60 min exposure): no significant effect; resting muscle tension ([9]; 30-120 µM, an increase would indicate a myotoxic effect): did not detect an increase; resting membrane potential (rVm), median ([12]; 30 min after exposure): −66.13 mV; resting membrane potential (rVm), median ([12]; 60 min after exposure): −66.63 mV; effect on resting membrane potential (rVm) ([12]; after 30 and 60 min of exposure): no effect; MEPPs frequency ([12]; within 60 min): without reducing; amplitudes of EPPs ([12]; within 60 min): did not affect; amplitudes of MEPPs ([12]; within 60 min): significantly decreased; half-decay time of EPPs ([12]; within 60 min of exposure): shortened; half-decay time of MEPPs ([12]; within 60 min of exposure): shortened |
